Patent US20060045953A1 (priority 2004, published 2006)
pEC50: −log10 of the molar value. Where two headings read alike, the source gives them in different places.

Target: T1, hT1R1/hT1R3 umami receptor (Homo sapiens, UniProt Q7RTX0+Q7RTX1)
T1 construct: expressed in transfected cells; host or cells: HEK293 derivative stably expressing Gα15, clone I-17, expression induced with mifepristone
T1 sequence (Q7RTX1 21-841): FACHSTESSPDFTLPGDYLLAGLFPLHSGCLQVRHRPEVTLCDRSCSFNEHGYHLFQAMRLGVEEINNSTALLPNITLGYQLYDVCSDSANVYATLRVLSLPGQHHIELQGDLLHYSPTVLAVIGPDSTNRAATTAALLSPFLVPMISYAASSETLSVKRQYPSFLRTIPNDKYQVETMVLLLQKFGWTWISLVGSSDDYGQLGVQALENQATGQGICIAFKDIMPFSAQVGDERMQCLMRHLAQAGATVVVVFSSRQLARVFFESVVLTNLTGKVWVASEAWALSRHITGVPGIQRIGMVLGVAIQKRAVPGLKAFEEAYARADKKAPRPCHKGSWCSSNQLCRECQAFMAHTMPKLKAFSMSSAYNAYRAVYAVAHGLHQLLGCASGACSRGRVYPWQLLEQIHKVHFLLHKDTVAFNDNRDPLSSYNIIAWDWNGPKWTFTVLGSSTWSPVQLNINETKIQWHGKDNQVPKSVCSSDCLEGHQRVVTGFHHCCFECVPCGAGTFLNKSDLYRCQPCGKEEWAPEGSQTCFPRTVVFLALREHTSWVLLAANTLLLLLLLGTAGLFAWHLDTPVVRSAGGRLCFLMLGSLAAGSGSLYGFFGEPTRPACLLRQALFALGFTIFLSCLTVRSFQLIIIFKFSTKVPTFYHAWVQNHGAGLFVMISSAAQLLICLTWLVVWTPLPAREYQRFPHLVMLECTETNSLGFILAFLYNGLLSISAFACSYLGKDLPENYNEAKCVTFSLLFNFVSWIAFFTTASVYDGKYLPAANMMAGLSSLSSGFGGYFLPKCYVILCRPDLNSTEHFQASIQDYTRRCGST
T1 sequence (Q7RTX0 21-852): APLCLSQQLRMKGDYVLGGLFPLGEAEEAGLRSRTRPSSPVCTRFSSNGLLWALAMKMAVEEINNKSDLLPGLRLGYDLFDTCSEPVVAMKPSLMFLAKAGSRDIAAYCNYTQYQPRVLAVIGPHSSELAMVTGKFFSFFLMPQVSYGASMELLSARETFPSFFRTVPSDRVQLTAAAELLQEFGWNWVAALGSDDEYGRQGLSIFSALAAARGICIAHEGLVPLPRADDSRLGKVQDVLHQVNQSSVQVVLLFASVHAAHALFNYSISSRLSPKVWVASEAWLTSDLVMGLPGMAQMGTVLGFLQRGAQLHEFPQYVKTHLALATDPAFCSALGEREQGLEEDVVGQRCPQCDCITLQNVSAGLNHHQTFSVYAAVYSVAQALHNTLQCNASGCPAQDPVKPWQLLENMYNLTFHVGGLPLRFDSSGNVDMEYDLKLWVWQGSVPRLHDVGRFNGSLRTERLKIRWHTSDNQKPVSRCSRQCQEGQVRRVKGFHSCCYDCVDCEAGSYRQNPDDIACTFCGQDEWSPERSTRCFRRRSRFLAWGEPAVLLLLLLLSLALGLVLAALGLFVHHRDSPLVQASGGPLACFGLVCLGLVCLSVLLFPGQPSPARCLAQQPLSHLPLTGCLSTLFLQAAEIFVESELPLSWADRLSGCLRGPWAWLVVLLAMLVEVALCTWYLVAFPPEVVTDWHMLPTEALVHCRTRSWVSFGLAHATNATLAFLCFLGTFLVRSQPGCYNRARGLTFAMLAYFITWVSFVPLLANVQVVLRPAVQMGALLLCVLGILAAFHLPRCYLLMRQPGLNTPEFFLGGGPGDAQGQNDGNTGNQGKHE
Assay: In vitro hT1R1/hT1R3 umami taste receptor activation assay (FLIPR, dose response)
Type: cell-based

[1] = read-out: EC50 for activation of a hT1R1/hT1R3 umami receptor expressed in an HEK293 cell line
[2] = Table C, Umami Ureas, read-out: Umami EC50
[3] = Table A, Umami Amides, read-out: Umami EC50

## CCCC(CCC)NC(=O)c1ccc2ocnc2c1 [Example 39, benzooxazole-5-carboxylic acid (1-propylbutyl)amide]
[1]
  pEC50: 5.72

## CCCC(CCC)NC(=O)c1cc2ccccc2s1 [Example 34, N-(heptan-4-yl)benzo[b]thiophene-2-carboxamide]
[1]
  pEC50: 6.68

## CCCC(CCC)NC(=O)Nc1ccccc1OC [Example C26, 1-(heptan-4-yl)-3-(2-methoxyphenyl)urea]
[2]
  pEC50: 6.31

## CCOc1ccc(C(=O)N[C@@H]2CCc3ccccc32)cc1C [(R)-N-(2,3-dihydro-1H-inden-1-yl)-4-ethoxy-3-methylbenzamide]
Opposite enantiomers compared, read-out: AFFINITY FOR T1R1/T1R3 SAVORY RECEPTOR EC50 UM
  pEC50: 5.34

## CCCC(CCC)NC(=O)Nc1ccccc1F [Example C4, 1-(2-fluorophenyl)-3-(heptan-4-yl)urea]
[2]
  pEC50: 6.10

## COCC(NC(=O)c1ccc(C)c(C)c1)C(C)C (centres unmarked) [Example 73, N-(1-Methoxymethyl-2-methyl-propyl)-3,4-dimethyl-benzamide]
[1]
  pEC50: 6.06

## COc1ccc(C(=O)NC(C)CCc2ccccc2)cc1C (centres unmarked) [Example A76, 4-methoxy-3-methyl-N-(4-phenylbutan-2-yl)benzamide]
[3]
  pEC50: 6.40

## CCCC(CCC)NC(=O)Nc1ccc(Cl)cc1Cl [Example C22, 1-(2,4-dichlorophenyl)-3-(heptan-4-yl)urea]
[2]
  pEC50: 6.74

## CCC(CC(C)C)NC(=O)c1ccc(OC)c(C)c1 (centres unmarked) [Example 53, 4-methoxy-3-methyl-N-(5-methylhexan-3-yl)benzamide]
[1]
  pEC50: 7.05

## CCCC(CCC)NC(=O)c1ccc(Cl)c(C)c1 [Example 64, 4-Chloro-3-methyl-N-(1-propyl-butyl)-benzamide]
[1]
  pEC50: 6.10

## Cc1cc(C(=O)N[C@H]2CCc3ccccc32)ccc1O [Example A111, (S)-N-(2,3-dihydro-1H-inden-1-yl)-4-hydroxy-3-methylbenzamide]
[3]
  pEC50: 6.18

## CCCC(CC)NC(=O)c1ccc(SC)c(C)c1 (centres unmarked) [Example A54, N-(hexan-3-yl)-3-methyl-4-(methylthio)benzamide]
[3]
  pEC50: 6.92

## COC(=O)[C@@H](CC(C)C)NC(=O)c1ccc(C)cc1 [Example A69, (R)-methyl 4-methyl-2-(4-methylbenzamido)pentanoate]
[3]
  pEC50: 6.49

## Cc1ccc(C(=O)N[C@H]2CCc3ccccc32)cc1C [Example A112, (S)-N-(2,3-dihydro-1H-inden-1-yl) 3,4-dimethylbenzamide]
[3]
  pEC50: 6.10

## CCCC(CCC)NC(=O)c1coc2ccccc12 [Example A123, N-(heptan-4-yl)benzofuran-3-carboxamide]
[3]
  pEC50: 6.29

## COC[C@@H](CC(C)C)NC(=O)c1ccc2c(c1)OCO2 [Example 9, (R)-N-(1-methoxy-4-methylpentan-2-yl)benzo[d][1,3]dioxole-5-benzo[d][1,3]dioxole-5-carboxylic acid]
[1]
  pEC50: 5.46

## COC(=O)[C@@H](CC(C)C)NC(=O)c1ccc2ccccc2c1 [Example A40, (R)-methyl 2-(2-naphthamido)-4-methylpentanoate]
[3]
  pEC50: 6.43

## CC(C)CC(COP(=O)(O)O)NC(=O)c1ccc2c(c1)OCO2 (centres unmarked) [Example 11, 2-(benzo[d][1,3]dioxole-6-carboxamido)-4-methylpentyl dihydrogen phosphate]
[1]
  pEC50: 4.96

## COc1ccc2c(c1)CCC2NC(=O)c1ccc(O)c(C)c1 (centres unmarked) [Example A110, 4-hydroxy-N-(5-methoxy-2,3-dihydro-1H-inden-1-yl)-3-methylbenzamide]
[3]
  pEC50: 6.52

## CCCC(CCC)NC(=O)c1ccc(SC)cc1 [Example A75, N-(heptan-4-yl)-4-(methylthio)benzamide]
[3]
  pEC50: 6.41

## CC(C)C[C@H](CO)NC(=O)c1ccc2c(c1)OCO2 [Example 8, (R)-N-(1-hydroxy-4-methylpentan-2-yl)benzo [d][1,3]dioxole-5-carboxamide]
[1]
  pEC50: 5.05

## COc1ccc(C(=O)NC(CO)CC(C)C)cc1Cl (centres unmarked) [Example A98, 3-chloro-N-(1-hydroxy-4-methylpentan-2-yl)-4-methoxybenzamide]
[3]
  pEC50: 6.06

## COC(=O)[C@H](NC(=O)c1ccc(C)c(C)c1)C(C)C [Example A62, (R)-methyl 2-(3,4-dimethylbenzamido)-3-methylbutanoate]
[3]
  pEC50: 6.60

## COc1ccc(CNC(=O)C(=O)NCC(C)c2ccccn2)c(OC)c1 (centres unmarked) [Example 144, N-(294-Dilmethoxybenzyl)-N′-(2-(pyridin-2-yl)propyl)oxalamide]
[1]
  pEC50: 5.97

## CSc1ccccc1CNC(=O)C(=O)NCCc1ccccn1 [Example 147, N-(2-(Methylthio)benzyl)-N′-(2-(pyridin-2-yl)ethyl)oxalamide]
[1]
  pEC50: 6.02

## CCCC(CCC)NC(=O)c1ccc2c(c1)OC(F)(F)O2 [Example 22, 2,2-difluoro-N-(heptan-4-yl)benzo[d][1,3]dioxole-5-carboxamide]
[1]
  pEC50: 5.82

## CCCC(CC(C)C)NC(=O)c1ccc2nc(C)oc2c1 (centres unmarked) [Example A24, 2-methyl-N-(2-methylheptan-4-yl)benzo[d]oxazole-6-carboxamide]
[3]
  pEC50: 5.95

## CCCC(CCC)NC(=O)c1cc(C)c(C)o1 [Example A31, N-(heptan-4-yl)-4,5-dimethylfuran-2-carboxamide]
[3]
  pEC50: 6.21

## CCCCC/C=C/C(=O)N[C@H](CC(C)C)C(=O)OC [Example 78, (R,E)-methyl 4-methyl-2-oct-2-enamidopentanoate]
[1]
  pEC50: 6.04

## CCCC(NC(=O)c1ccc(OC)c(C)c1)C(C)C (centres unmarked) [Example A59, 4-methoxy-3-methyl-N-(2-methylhexan-3-yl)benzamide]
[3]
  pEC50: 6.70

## O=C(NCCc1ccccn1)C(=O)NCc1nc2ccccc2s1 [Example 151, N-(Benzo[d]thiazol-2-ylmethyl)-N′-(2-(pyridin-2-yl)ethyl)oxalamide]
[1]
  pEC50: 5.36

## COc1ccc(CNC(=O)C(=O)NCCc2ccccn2)cc1 [Example 128, N-(4-Methoxybenzyl)-N′-(2-pyridin-2-yl-ethyl)-oxalamide]
[1]
  pEC50: 6.12

## CCCCC(NC(=O)/C=C/c1ccc(OC)cc1)C(=O)OC (centres unmarked) [Example D3, (E)-methyl 2-(3-(4-methoxyphenyl)acrylamido)hexanoate]
Table D, Umami Acrylamides, read-out: Umami EC50
  pEC50: 6.20

## CCCC(CCC)NC(=O)/C=C/c1ccccc1F [Example 85, 3-(2-Fluoro-phenyl)-N-(1-propyl-butyl)-acrylamide]
[1]
  pEC50: 6.80

## CC1CCCC(NC(=O)c2ccc3c(c2)OCO3)C1C (centres unmarked) [Example 4, N-(2,3-dimethylcyclohexyl)benzo[d][1,3]dioxole-5-carboxamide]
[1]
  pEC50: 6.35

## COc1ccc(C(=O)N[C@H](C)c2ccccc2)cc1Cl [Example 63, (R)-3-chloro-4-methoxy-N-(1-phenylethyl)benzamide]
[1]
  pEC50: 5.60

## CCCC(CCC)NC(=O)c1ccc(C)c(C)n1 [Example 91, N-(heptan-4-yl)-5,6-dimethylpicolinamide]
[1]
  pEC50: 5.55

## CCCC(CCC)NC(=O)c1cccc(OC)c1 [Example A90, N-(heptan-4-yl)-3-methoxybenzamide]
[3]
  pEC50: 6.21

## CCCC(CCC)NC(=O)c1cccc(C)c1N [Example A127, 2-amino-N-(heptan-4-yl)-3-methylbenzamide]
[3]
  pEC50: 6.85

## O=C(NCCc1ccccn1)C(=O)NCc1cccc2c1OCO2 [Example 149, N-(Benzo[d][1,3]dioxol-4-ylmethyl)-N′-(2-(pyridin-2-yl)ethyl)oxalamide]
[1]
  pEC50: 6.77

## CCCC(COC)NC(=O)c1ccc(OCC)c(C)c1 (centres unmarked) [Example 57, 4-ethoxy-N-(1-methoxypentan-2-yl)-3-methylbenzamide]
[1]
  pEC50: 6.16
